Measured values published in patent publication US12201610B2, “Compositions comprising aticaprant” (Janssen Pharmaceuticals, Inc., priority 2022, dated 2025).

Test: GVS characterization of Form III
Type: physicochemical
Details: at 90% RH

For `Cc1cc(C)cc([C@@H]2CCCN2Cc2ccc(Oc3ccc(C(N)=O)cc3F)cc2)c1` [Form III], the GVS max uptake was 0.4% max uptake at 90% RH.
